Experimental data: patent publication EP0782997A2, “Triazolopyrimidine derivatives” (SHELL INTERNATIONALE RESEARCH MAATSCHAPPIJ B.V., priority 1991, dated 1993)
Converted amounts (≈) assume the structure as drawn.

Columns and labels:
Venturia inaequalis = test: Fungicidal activity against Venturia inaequalis on Malus sp. (apple cuttings, protectant spray); type: in vivo; set-up: key: 0 = no infection; 1 = 1-10% infection; 2 = 11-40% infection; 3 = 41-100% infection; details: extent of infection score; apple cuttings variety Morgenduft; test compound 400 ppm; infected after 24 hours; assessed after about 14 days
Description: Fungicidal activity against Venturia inaequalis on Malus sp.
Apple cuttings of the variety Morgenduft, which are about 6 weeks old, were treated with a solution of the test compound (400 ppm) in water/acetone/Triton X or water/methanol/Triton X. After 24 hours, the plants were infected with a conidia suspension of Venturia inaequalis (about 50,000 conidia/ml), incubated in a dark climatic chamber at a relative humidity of 100% for 48 hours and then kept at a relative humidity of 95-99% and temperature of 18-20°C during the day and 13°C during the night for about 14 days. The extent of infection was assessed according to the following scheme:- • 0 = no infection • 1 = 1-10% infection • 2 = 11-40% infection • 3 = 41-100% infection The results of these tests are set out in Table II below:-

Alternaria solani [1] = test: MIC determination by serial dilution in microtitre plates; type: cell-based; details: lowest concentration without mycelial growth, V8 juice nutrient solution, 20°C, 6-8 days, visual inspection
Description: (§1) Determination of MIC-Values of compounds against various phytopathogenic fungi
(§2) The MIC (Minimum Inhibition Concentration)-values were determined by serial dilution tests using 48-well microtitre plates. The dilution of the test compounds in the nutrient solution and the distribution to the wells were carried out by a TECAN RSP 5000 robotic sample processor.
(§3) For preparation of the nutrient solution, V8 juice (Trade Mark) was neutralised with calcium carbonate and centrifuged. The supernatant was diluted with distilled water (1:5) to the final concentration.
(§4) The fungi (Alternaria solani, Botrytis cinerea, Septoria nodorum) were added into the wells as a droplet of spore suspension. The microtitre plates were then incubated at 20°C for 6-8 days. The MIC-value was determined by visual inspection of the plates. In the case of Alternaria solani and Botrytis cinerea, the lowest concentration in the dilution series without mycelial growth was defined to be the MIC-value. For Septoria nodorum, no MIC-value but only a strong inhibition of growth was regularly observed.

Botrytis cinerea [2] = test: as above; type: cell-based; details: lowest concentration without mycelial growth, V8 juice nutrient solution, 20°C, 6-8 days, visual inspection
Description: as §1, §2, §3, §4

Alternaria solani [3] = test: Activity against tomato early blight (AS), Example 120; type: in vivo; details: tomato seedlings, foliar spray as described under (a) (1000 ppm), contact prophylactic; disease control rating
Botrytis cinerea [4] = test: Direct protectant activity against broad bean grey mould (BCB), Example 120; type: in vivo; details: broad bean plants, foliar spray 1000 ppm, disease control rating
Leptosphaeria nodorum = test: Activity against wheat leafspot (LN), Example 120; type: in vivo; details: wheat plants, foliar spray 1000 ppm, direct therapeutic; disease control rating
[5] = tested on: Erysiphe graminis f.sp. hordei; test: Activity against barley powdery mildew (EG), Example 120; type: in vivo; details: barley seedlings, foliar spray 1000 ppm, direct therapeutic; disease control rating
Pyricularia oryzae = type: in vivo; details: rice seedlings, foliar spray 1000 ppm, direct therapeutic; disease control rating
[6] = tested on: Pseudocercosporella herpotrichoides; test: Activity against wheat eyespot in-vitro (PHI), Example 120; type: cell-based; details: 50 ppm compound, 2.5% acetone, 20°C, 12 days, mycelial growth, rating
Rhizoctonia solani = test: Activity against Rhizoctonia in-vitro (RSI), Example 120; type: cell-based; details: 50 ppm compound, 2.5% acetone, 20°C, 10 days, mycelial growth, rating

SMILES	Activity (Venturia inaequalis)	MIC (Alternaria solani [1]) [µg/mL]	MIC (Botrytis cinerea [2]) [µg/mL]	further results
CNc1nc2ncnn2c(NC2CCCC2)c1-c1ccccc1 [Example 4, 5-methylamino-6-phenyl-7-cyclopentylamino-1,2,4-triazolo[1,5-a]pyrimidine]	2.3	–	–	–
CC(C)Nc1c(-c2ccccc2F)c(Cl)nc2ncnn12 [Example 41]	0	12.5 (≈ 40.9 µM)	25 (≈ 81.8 µM)	Fungicidal Activity AS (Alternaria solani [3]): 2 (2 = greater than 80% disease control); Fungicidal Activity BCB (Botrytis cinerea [4]): 2 (2 = greater than 80% disease control); Fungicidal Activity LN (Leptosphaeria nodorum): 2 (2 = greater than 80% disease control); Fungicidal Activity EG [5]: 2 (2 = greater than 80% disease control); Fungicidal Activity PO (Pyricularia oryzae): 2 (2 = greater than 80% disease control); Fungicidal Activity PHI [6]: 1 (1 = about 50-80% disease control); Fungicidal Activity RSI (Rhizoctonia solani): 2 (2 = greater than 80% disease control)
COc1ccc(-c2cnc3ncnn3c2NC2CCCC2)cc1 [Example 3, 6-(4-methoxyphenyl)-7-cyclopentylamino-1,2,4-triazolo[1,5-a]pyrimidine]	2.5	–	–	–
Brc1nc2ncnn2c(NC2CCCC2)c1-c1ccccc1 [Example 2, 5-bromo-6-phenyl-7-cyclopentylamino-1,2,4-triazolo[1,5-a]pyrimidine]	0	–	–	–
Cc1ccc(-c2c(Cl)nc3ncnn3c2NC2CCCC2)cc1 [Example 1, 5-chloro-6-(4-methylphenyl)-7-cyclo-pentylamino-1,2,4-triazolo[1,5-a]pyrimidine]	1 (1 = 1-10% infection)	1.56 (≈ 4.76 µM)	12.5 (≈ 38.1 µM)	–
Clc1ccccc1-c1c(I)nc2ncnn2c1NC1CCCC1 [Example 6, 5-iodo-6-(2-chlorophenyl)-7-cyclopentylamino-1,2,4-triazolo[1,5-a]pyrimidine]	–	3.13 (≈ 7.12 µM)	6.25 (≈ 14.2 µM)	–
